Reference: patent US20130131034A1, “DERIVATIVES OF AMINOINDANES, THEIR PREPARATION AND THEIR APPLICATION IN THERAPEUTICS” (SANOFI, priority 2010, published 2013)
Counter-ions that a name gives are not always drawn.

Point of comparison: `N[C@@H]1CCCN([C@@H]2Cc3ccccc3[C@H]2Oc2cc3c(cc2Cl)NC(=O)CC3)C1` (as salt: HCl) [Compound 132, 6-({(1R,2R)-2-[(3R)-3-aminopiperidin-1-yl]-2,3-dihydro-1H-inden-1-yl}oxy)-7-chloro-3,4-dihydroquinolin-2(1H)-one], melting point 183.7 °C. Against it:
- CS(=O)(=O)c1ccc2c(c1)[C@@H](Oc1ccc(C#N)cc1Cl)[C@H](N1CCC[C@@H](N)C1)C2 (as salt: HCl) [Compound 123, 4-{[(1R,2R)-2-[(3R)-3-aminopiperidin-1-yl]-6-(methylsulfonyl)-2,3-dihydro-1H-inden-1-yl]oxy}-3-chlorobenzonitrile] — lower, 162 °C
- CC(C)(N)C1CN([C@@H]2Cc3ccccc3[C@H]2Oc2ccc(C#N)cc2Cl)C1 (as salt: HCl) [Compound 125, 4-({(1R,2R)-2-[3-(2-aminopropan-2-yl)azetidin-1-yl]-2,3-dihydro-1H-inden-1-yl}oxy)-3-chlorobenzonitrile] — lower, 93 °C
- COc1ccc2c(c1)[C@@H](Oc1ccc3c(c1)CCC(=O)N3)[C@H](N1CCC[C@@H](N)C1)C2 (as salt: HCl) [Compound 131, 6-({(1R,2R)-2-[(3R)-3-aminopiperidin-1-yl]-6-methoxy-2,3-dihydro-1H-inden-1-yl}oxy)-3,4-dihydroquinolin-2(1H)-one] — lower, 145.6 °C
- N#Cc1ccc(O[C@@H]2c3cccnc3C[C@H]2N2CCC[C@@H](N)C2)c(Cl)c1 (as salt: HCl) [Compound 137, 4-({(5R,6R)-6-[(3R)-3-aminopiperidin-1-yl]-6,7-dihydro-5H-cyclopenta[b]pyridin-5-yl}oxy)-3-chlorobenzonitrile] — lower, 172 °C
- N#Cc1ccc(O[C@@H]2c3ncccc3C[C@H]2N2CCC[C@@H](N)C2)c(Cl)c1 (as salt: HCl) [Compound 138, 4-({(6R,7S)-6-[(3R)-3-aminopiperidin-1-yl]-6,7-dihydro-5H-cyclopenta[b]pyridin-7-yl}oxy)-3-chlorobenzonitrile] — lower, 180 °C
